Drawing on ChEMBL document CHEMBL3593227, “A New Class of Potent N-Methyl-D-Aspartate Receptor Inhibitors: Sulfated Neuroactive Steroids with Lipophilic D-Ring Modifications” (J Med Chem, 2015), this text covers IC50 and inhibition for 17 compounds.

The source made the active and inactive calls. The calls are words filed in the database; no cut-off is given here.

Test [1] concerns the target T1, Glutamate NMDA receptor; GRIN1/GRIN2B (Homo sapiens, UniProt Q05586+Q13224). The test can be described thus: Inhibition of recombinant GluN1/GluN2B receptor (unknown origin) expressed in HEK293 cells assessed as inhibition of glutamate-evoked current by whole-cell voltage-clamp method. The test is classed as cell-based.
Test [2] concerns the target T1, Glutamate NMDA receptor; GRIN1/GRIN2B. The test can be described thus: Inhibition of recombinant GluN1/GluN2B receptor (unknown origin) expressed in HEK293 cells assessed as inhibition of glutamate-evoked current at 1 to 10 uM by whole-cell voltage-clamp method. It counts as cell-based.
A short description of test [3]: Inhibition of AMPA receptor in rat hippocampal neurons assessed as inhibition of AMPA-evoked current by whole-cell voltage-clamp method in presence of receptor desensitization inhibitor cyclothiazide. It counts as tissue-based. The following applies: Hippocampus.
Test [4] is described as follows: Inhibition of GABA receptor in rat hippocampal neurons assessed as inhibition of GABA-evoked current by whole-cell voltage-clamp method. To be noted: Hippocampus. The test is classed as tissue-based.
Test [5] has as its target Ionotropic glutamate receptor NMDA 1/2C (Homo sapiens, UniProt Q05586+Q14957). The test can be described thus: Inhibition of recombinant GluN1/GluN2C receptor (unknown origin) expressed in HEK293 cells assessed as inhibition of glutamate-evoked current by whole-cell voltage-clamp method. It counts as cell-based.
The next test concerns the target Glutamate NMDA receptor. The test can be described thus: Inhibition of NMDA receptor in rat hippocampal neurons assessed as inhibition of glutamate-evoked current by whole-cell voltage-clamp method. It counts as tissue-based, Hippocampus.
For test [6], the target named is Glutamate NMDA receptor; GRIN1/GRIN2A (Homo sapiens, UniProt Q05586+Q12879). The test can be described thus: Inhibition of recombinant GluN1/GluN2A receptor (unknown origin) expressed in HEK293 cells assessed as inhibition of glutamate-evoked current by whole-cell voltage-clamp method. It counts as cell-based.
Glutamate NMDA receptor; GRIN1/GRIN2A, sequence (Q12879 whole entry, other chains not shown): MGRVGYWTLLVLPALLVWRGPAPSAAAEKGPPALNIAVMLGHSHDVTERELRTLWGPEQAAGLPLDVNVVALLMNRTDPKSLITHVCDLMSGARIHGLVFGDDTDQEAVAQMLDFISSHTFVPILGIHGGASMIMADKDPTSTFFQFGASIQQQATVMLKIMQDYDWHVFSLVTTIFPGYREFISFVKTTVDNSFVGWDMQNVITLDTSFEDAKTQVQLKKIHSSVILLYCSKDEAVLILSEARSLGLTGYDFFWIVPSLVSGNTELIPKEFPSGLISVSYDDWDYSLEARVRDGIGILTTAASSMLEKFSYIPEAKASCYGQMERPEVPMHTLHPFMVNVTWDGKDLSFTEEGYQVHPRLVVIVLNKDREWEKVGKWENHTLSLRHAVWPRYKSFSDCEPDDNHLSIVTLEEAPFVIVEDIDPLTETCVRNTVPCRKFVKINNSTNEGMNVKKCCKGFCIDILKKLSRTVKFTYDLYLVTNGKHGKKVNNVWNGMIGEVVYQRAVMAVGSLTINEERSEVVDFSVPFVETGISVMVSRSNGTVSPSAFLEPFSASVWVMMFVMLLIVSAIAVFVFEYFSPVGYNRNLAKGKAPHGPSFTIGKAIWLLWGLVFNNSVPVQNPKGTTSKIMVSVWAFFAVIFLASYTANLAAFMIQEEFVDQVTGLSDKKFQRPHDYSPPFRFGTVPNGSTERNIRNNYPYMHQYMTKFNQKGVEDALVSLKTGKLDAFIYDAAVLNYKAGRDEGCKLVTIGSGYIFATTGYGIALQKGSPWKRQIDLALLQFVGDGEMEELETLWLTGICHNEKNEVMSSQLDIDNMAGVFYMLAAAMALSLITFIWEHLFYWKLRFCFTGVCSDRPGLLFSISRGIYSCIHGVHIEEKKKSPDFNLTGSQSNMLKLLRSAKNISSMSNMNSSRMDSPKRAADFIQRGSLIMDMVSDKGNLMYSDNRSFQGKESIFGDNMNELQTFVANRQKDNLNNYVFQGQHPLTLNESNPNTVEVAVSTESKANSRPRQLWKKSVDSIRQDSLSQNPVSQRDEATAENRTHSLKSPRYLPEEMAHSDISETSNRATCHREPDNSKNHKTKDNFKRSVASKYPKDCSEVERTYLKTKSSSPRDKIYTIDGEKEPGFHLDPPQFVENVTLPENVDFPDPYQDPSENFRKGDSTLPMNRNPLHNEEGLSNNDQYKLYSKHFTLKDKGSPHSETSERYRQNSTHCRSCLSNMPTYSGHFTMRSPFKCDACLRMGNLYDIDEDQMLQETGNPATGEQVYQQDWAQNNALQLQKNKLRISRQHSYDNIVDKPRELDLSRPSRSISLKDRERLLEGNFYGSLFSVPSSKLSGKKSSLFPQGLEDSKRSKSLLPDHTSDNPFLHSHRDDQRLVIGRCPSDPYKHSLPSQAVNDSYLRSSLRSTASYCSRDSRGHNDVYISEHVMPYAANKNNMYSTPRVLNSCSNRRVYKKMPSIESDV
Test [7] addresses Ionotropic glutamate receptor NMDA 1/2D (Homo sapiens, UniProt O15399+Q05586). The test can be described thus: Inhibition of recombinant GluN1/GluN2D receptor (unknown origin) expressed in HEK293 cells assessed as inhibition of glutamate-evoked current by whole-cell voltage-clamp method. The test is classed as cell-based.

Ionotropic glutamate receptor NMDA 1/2C, sequence (Q14957 whole entry, other chains not shown): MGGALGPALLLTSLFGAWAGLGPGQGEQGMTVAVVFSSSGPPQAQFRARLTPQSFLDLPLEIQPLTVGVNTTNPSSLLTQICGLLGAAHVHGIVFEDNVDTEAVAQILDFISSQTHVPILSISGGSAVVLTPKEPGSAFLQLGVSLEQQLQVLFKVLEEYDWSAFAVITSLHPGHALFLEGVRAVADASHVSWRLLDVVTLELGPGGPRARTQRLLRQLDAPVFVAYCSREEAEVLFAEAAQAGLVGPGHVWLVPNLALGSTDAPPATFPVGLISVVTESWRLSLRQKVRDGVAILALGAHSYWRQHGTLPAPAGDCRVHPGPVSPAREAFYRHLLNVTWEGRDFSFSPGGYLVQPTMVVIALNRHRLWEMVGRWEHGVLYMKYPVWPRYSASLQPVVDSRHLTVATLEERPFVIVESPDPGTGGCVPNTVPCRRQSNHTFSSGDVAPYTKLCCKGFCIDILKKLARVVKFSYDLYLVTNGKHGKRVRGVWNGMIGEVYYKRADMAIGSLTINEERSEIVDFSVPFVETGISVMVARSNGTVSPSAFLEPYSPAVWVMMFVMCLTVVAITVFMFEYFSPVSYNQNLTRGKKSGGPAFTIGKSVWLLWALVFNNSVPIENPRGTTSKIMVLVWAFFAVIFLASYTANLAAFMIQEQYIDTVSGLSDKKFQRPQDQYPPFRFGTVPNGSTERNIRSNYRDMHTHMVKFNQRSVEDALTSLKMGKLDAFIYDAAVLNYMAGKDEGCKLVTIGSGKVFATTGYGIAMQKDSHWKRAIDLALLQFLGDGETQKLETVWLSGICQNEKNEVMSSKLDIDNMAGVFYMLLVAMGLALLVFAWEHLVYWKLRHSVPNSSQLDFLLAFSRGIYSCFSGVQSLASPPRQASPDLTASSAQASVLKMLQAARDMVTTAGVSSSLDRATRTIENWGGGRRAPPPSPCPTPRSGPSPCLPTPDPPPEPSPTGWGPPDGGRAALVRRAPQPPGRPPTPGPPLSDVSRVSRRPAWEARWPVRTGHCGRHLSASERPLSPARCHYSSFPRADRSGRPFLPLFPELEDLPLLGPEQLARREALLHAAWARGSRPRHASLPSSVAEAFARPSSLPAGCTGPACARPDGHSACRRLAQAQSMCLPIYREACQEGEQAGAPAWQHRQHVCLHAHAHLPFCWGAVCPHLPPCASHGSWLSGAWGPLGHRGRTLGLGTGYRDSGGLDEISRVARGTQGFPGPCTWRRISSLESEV
Ionotropic glutamate receptor NMDA 1/2D, sequence (O15399 whole entry, other chains not shown): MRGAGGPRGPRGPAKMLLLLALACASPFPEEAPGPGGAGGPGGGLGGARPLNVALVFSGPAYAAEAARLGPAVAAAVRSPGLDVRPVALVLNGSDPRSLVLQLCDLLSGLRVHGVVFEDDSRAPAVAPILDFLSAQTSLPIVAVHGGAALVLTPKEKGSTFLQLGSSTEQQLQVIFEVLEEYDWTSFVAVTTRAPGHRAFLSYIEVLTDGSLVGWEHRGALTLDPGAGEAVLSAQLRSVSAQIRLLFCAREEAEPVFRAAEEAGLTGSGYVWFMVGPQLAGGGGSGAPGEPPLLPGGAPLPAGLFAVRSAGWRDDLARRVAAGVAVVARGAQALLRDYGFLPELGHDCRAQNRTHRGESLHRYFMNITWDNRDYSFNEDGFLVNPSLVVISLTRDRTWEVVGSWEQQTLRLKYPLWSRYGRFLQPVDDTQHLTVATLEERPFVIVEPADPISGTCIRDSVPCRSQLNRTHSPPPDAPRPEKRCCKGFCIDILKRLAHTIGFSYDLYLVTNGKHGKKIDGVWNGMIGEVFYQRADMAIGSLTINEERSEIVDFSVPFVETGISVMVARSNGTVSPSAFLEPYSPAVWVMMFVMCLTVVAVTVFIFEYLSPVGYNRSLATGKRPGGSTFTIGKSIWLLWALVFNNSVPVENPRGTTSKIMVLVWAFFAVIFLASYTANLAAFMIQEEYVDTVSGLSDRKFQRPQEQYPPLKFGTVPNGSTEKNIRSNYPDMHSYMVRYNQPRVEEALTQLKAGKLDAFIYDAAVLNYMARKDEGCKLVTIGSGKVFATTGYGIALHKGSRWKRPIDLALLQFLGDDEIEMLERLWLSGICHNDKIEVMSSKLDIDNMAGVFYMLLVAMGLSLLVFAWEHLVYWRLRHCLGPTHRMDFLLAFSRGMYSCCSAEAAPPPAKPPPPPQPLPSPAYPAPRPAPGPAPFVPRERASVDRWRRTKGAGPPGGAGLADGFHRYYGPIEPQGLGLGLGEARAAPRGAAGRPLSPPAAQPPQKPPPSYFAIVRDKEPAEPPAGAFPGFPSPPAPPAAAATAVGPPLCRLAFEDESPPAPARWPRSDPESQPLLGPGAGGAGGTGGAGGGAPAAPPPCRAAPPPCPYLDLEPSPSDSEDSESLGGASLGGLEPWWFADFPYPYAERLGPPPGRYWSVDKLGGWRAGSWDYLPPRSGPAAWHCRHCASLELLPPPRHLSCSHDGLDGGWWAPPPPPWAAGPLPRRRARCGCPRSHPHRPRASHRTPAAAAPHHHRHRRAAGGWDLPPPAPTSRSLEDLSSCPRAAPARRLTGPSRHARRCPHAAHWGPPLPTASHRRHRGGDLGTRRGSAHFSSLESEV

As usually defined, the IC50 is the point on the concentration scale where inhibition reaches its midpoint. Regarding `C[C@]12CC[C@@H](OS(=O)(=O)O)C[C@H]1CC[C@@H]1[C@@H]2CC[C@@]2(C)[C@H]1CCC2(F)F.c1ccncc1`, the half-maximal inhibitory concentration (IC50) in test [1] was 7000 nM.

For the compound `C[C@@]12CCCC[C@H]1[C@@H]1CC[C@@H]3C[C@H](OS(=O)(=O)O)CC[C@]3(C)[C@H]1CC2.c1ccncc1`, the IC50 in test [1] was 1100 nM. On to `CC[C@@H](C)[C@H]1CC[C@H]2[C@@H]3CC[C@@H]4C[C@H](OS(=O)(=O)O)CC[C@]4(C)[C@H]3CC[C@]12C.c1ccncc1`, for which the IC50 in test [1] is 90 nM. With `C[C@]12CC[C@@H](OS(=O)(=O)O)C[C@H]1CC[C@@H]1[C@@H]2CC[C@]2(C)C=CC[C@@H]12.c1ccncc1`, the inhibition result in test [2] is “inactive”.

With `C=C(C)[C@H]1CC[C@H]2[C@@H]3CC[C@@H]4C[C@H](OS(=O)(=O)O)CC[C@]4(C)[C@H]3CC[C@]12C.c1ccncc1`, the concentration for half-maximal inhibition (IC50) in test [1] is 500 nM. Still for that read-out and setting: the result for `CC[C@H]1CC[C@H]2[C@@H]3CC[C@@H]4C[C@H](OS(=O)(=O)O)CC[C@]4(C)[C@H]3CC[C@]12C.c1ccncc1` reads 400 nM; that for `CC(C)[C@H]1CC[C@H]2[C@@H]3CC[C@@H]4C[C@H](OS(=O)(=O)O)CC[C@]4(C)[C@H]3CC[C@]12C.c1ccncc1`, 170 nM.

Consider `C[C@H]1CC[C@H]2[C@@H]3CC[C@@H]4C[C@H](OS(=O)(=O)O)CC[C@]4(C)[C@H]3CC[C@]12C.c1ccncc1`, for which the half-maximal inhibitory concentration (IC50) in test [1] was found to be 600 nM; in test [3], 9500 nM; in test [4], 1200 nM; in test [5], 400 nM; at Glutamate NMDA receptor it was 900 nM; in test [6] it was 600 nM. Moreover, the IC50 in test [7] amounted to 500 nM. `C[C@H]1CC[C@@H]2[C@@H]1CC[C@H]1[C@H]2CC[C@@H]2C[C@H](OS(=O)(=O)O)CC[C@@]21C.c1ccncc1`: the IC50 in test [1] is 700 nM. Regarding `C[C@]12CC[C@@H](OS(=O)(=O)O)C[C@H]1CC[C@@H]1[C@@H]2CC[C@]2(C)[C@@H](I)CC[C@@H]12.c1ccncc1`, the IC50 in test [1] was determined as 600 nM.

For the compound `C[C@@]12CCC[C@H]1[C@@H]1CC[C@@H]3C[C@H](OS(=O)(=O)O)CC[C@]3(C)[C@H]1CC2.c1ccncc1`, in test [1], the half-inhibitory concentration (IC50) was found to be 1200 nM. Still for that read-out and setting: the result for `C/C=C1/CC[C@H]2[C@@H]3CC[C@@H]4C[C@H](OS(=O)(=O)O)CC[C@]4(C)[C@H]3CC[C@]12C.c1ccncc1` reads 800 nM.

Take `C=C1CC[C@H]2[C@@H]3CC[C@@H]4C[C@H](OS(=O)(=O)O)CC[C@]4(C)[C@H]3CC[C@]12C.c1ccncc1`: the IC50 in test [1] was found to be 1600 nM. On to `C[C@@]12CCC[C@H]1[C@@H]1CC[C@@H]3C[C@H](OS(=O)(=O)O)CC[C@@H]3[C@H]1CC2.c1ccncc1`, for which the concentration for half-maximal inhibition (IC50) in test [1] amounted to 5400 nM.

On to `C[C@@H]1CC[C@@H]2[C@H]1CC[C@H]1[C@H]2CC[C@@H]2C[C@H](OS(=O)(=O)O)CC[C@@]21C.c1ccncc1`, for which, in test [1], the IC50 is 900 nM. The same measure, in the same setting: the same measure for `C=C1C[C@H]2[C@@H]3CC[C@@H]4C[C@H](OS(=O)(=O)O)CC[C@]4(C)[C@H]3CC[C@]2(C)C1.c1ccncc1`: 2200 nM. Regarding `CC(=O)[C@H]1CC[C@H]2[C@@H]3CC[C@@H]4C[C@H](OS(=O)(=O)O)CC[C@]4(C)[C@H]3CC[C@]12C`, in test [1], the IC50 stood at 23400 nM and the inhibition result was “Dose-dependent effect”.
